Like-named read-outs stand apart in the source and are kept apart here.
Key:
[1] = tested on: acute myelogenous leukemia cells (MV-4-11 cells); experiment: Cytotoxicity to acute myelogenous leukemia cells (MV-4-11 cells), CCK-8; details: Homo sapiens, MV4-11, 72 h
[2] = target: BRD4 (BD1+BD2) bromodomain (Homo sapiens (Human), UniProt O60885); experiment: BRD4 binding inhibition (AlphaScreen, GST-BRD4 vs tetraacetylated histone H4 peptide)
Method in brief: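 GST-BRD4 (BD1+BD2) and biotinylated tetraacetyl-histone H4 peptide, each at 100 nM in HEPES pH 7.4 buffer with BSA and DTT, were combined with compound. Glutathione acceptor and streptavidin donor beads were added, then incubated 30 min at room temperature in the dark. Read-out was AlphaScreen signal.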

[3] = read-out: IC50, cytotoxicity against acute myelogenous leukemia cells
[4] = read-out: MV-4-11 Cytotoxicity IC50
[5] = GST-BRD4 (BD1+BD2) / biotinylated acetyl-histone H4 (Lys5,8,12,16) peptide, read-out: IC50, BRD4 binding inhibition
[6] = GST-BRD4 (BD1+BD2) vs biotinylated acetyl-histone H4 peptide, AlphaScreen, read-out: BRD4 IC50

Structure (SMILES) | IC50 [1, 3] | IC50 [1, 4] | IC50 [2, 5] | IC50 [2, 6]
Cc1nnc2c(NCCCCNC(=O)c3ccccc3Cl)nc3cc(OC(C)C)ccc3n12 [Example 454, 2-chloro-N-[4-(7-isopropoxy-1-methyl-[1,2,4]triazolo[4,3-a]quinoxaline-4-ylamino)-butyl]-benzamide] | ≤ 0.2 µM | 0.08 µM | ≤ 0.05 µM | 0.011 µM
COc1cc2nc(NCCCCNC(=O)[C@@H](O)C(C)C)c3nnc(C)n3c2cc1OC [Example 83, N-[4-(7,8-dimethoxy-1-methyl-[1,2,4]triazolo[4,3-a]quinoxaline-4-ylamino)-butyl]-2-(S)-hydroxy-3-methyl-butyramide] |  | 0.211 µM | ≤ 0.01 µM | 0.002 µM
CSc1ccc2c(c1)nc(NCCCCNC(=O)[C@@H](O)C(C)C)c1nnc(C)n12 [Example 358, 2-(S)-hydroxy-3-methyl-N-[4-(1-methyl-7-methylsulfanyl-[1,2,4]triazolo[4,3-a]quinoxaline-4-ylamino)-butyl]-butyramide] |  | 0.16 µM | ≤ 0.01 µM | 0.007 µM
COCCOc1ccc2c(c1)nc(NCCCCNC(=O)CC(C)C)c1nnc(C)n12 [Example 365, N-{4-[7-(2-methoxy-ethoxy)-1-methyl-[1,2,4]triazolo[4,3-a]quinoxaline-4-ylamino]-butyl}-3-methyl-butyramide] | ≤ 0.2 µM | 0.06 µM | ≤ 0.05 µM | 0.013 µM
COc1cc2nc(NCCCCNC(=O)CC(C)C)c3nnc(C)n3c2cc1OCCN1CCOCC1 [Example 576, N-{4-[7-methoxy-1-methyl-8-(2-morpholine-4-yl-ethoxy)-[1,2,4]triazolo[4,3-a]quinoxaline-4-ylamino]-butyl}-3-methyl butyramide] | ≤ 0.2 µM | 0.086 µM |  | 0.052 µM
COc1ccc2c(c1)nc(NCCCCNC(=O)[C@@H](NC(=O)OCC(C)C)C(C)C)c1nnc(C)n12 [Example 318, (S)-{1-[4-(7-methoxy-1-methyl-[1,2,4]triazolo[4,3-a]quinoxaline-4-ylamino)-butylcarbamoyl]-2-methyl-propyl}-carbamic acid isobutylester] | ≤ 0.2 µM | 0.032 µM | ≤ 0.01 µM | 0.01 µM
CCC(CC)C(=O)NCCCCNc1nc2cc(OCCOC)ccc2n2c(C)nnc12 [Example 381, 2-ethyl-N-{4-[7-(2-methoxy-ethoxy)-1-methyl-[1,2,4]triazolo[4,3-a]quinoxaline-4-ylamino]-butyl}-butyramide] | ≤ 0.2 µM | 0.2 µM | ≤ 0.05 µM | 0.014 µM
COc1cc2nc(NCCCCNC(=O)CC(C)C)c3nnc(C)n3c2cc1F [Example 574, N-[4-(8-fluoro-7-methoxy-1-methyl-[1,2,4]triazolo[4,3-a]quinoxaline-4-ylamino)-butyl]-3-methyl-butyramide] | ≤ 0.2 µM | 0.045 µM | ≤ 0.05 µM | 0.04 µM
Cc1nnc2c(NCCCCNC(=O)[C@H](O)C(C)C)nc3cc(-c4nc5ccccc5n4C)ccc3n12 [Example 235, 2-(R)-hydroxy-3-methyl-N-{4-[1-methyl-7-(1-methyl-1H-benzimidazole-2-yl)-[1,2,4]triazolo[4,3-a]quinoxaline-4-ylamino]-butyl}-butyramide] |  | 0.39 µM | ≤ 0.05 µM | 0.011 µM
COc1cc2nc(NCCCCNC(=O)c3ccc(C(C)(C)C)cc3)c3nnc(C)n3c2cc1OC [Example 96, 4-tert-butyl-N-[4-(7,8-dimethoxy-1-methyl-[1,2,4]triazolo[4,3-a]quinoxaline-4-ylamino)-butyl]-benzamide] |  | 0.63 µM | ≤ 0.05 µM | 
COc1ccc2c(c1)nc(NCCCCNC(=O)Cc1cccs1)c1nnc(C)n12 [Example 307, N-[4-(7-methoxy-1-methyl-[1,2,4]triazolo[4,3-a]quinoxaline-4-ylamino)-butyl]-2-thiophene-2-yl-acetamide] | ≤ 0.2 µM | 0.01 µM | ≤ 0.05 µM | 0.022 µM
COCCOc1ccc2c(c1)nc(NCCCCNC(=O)C=C(C)C)c1nnc(C)n12 [Example 378, 3-methyl-butene-2-oic acid-{4-[7-(2-methoxy-ethoxy)-1-methyl-[1,2,4]triazolo[4,3-a]quinoxaline-4-ylamino]-butyl}-amide] |  | 0.29 µM | ≤ 0.05 µM | 0.014 µM
Cc1nnc2c(NCCCCNC(=O)[C@@H](NC(=O)OC(C)C)C(C)C)nc3cc(N4C[C@@H](C)O[C@@H](C)C4)ccc3n12 [Example 520, (S)-(1-{4-[7-(2,6-dimethyl-morpholine-4-yl)-1-methyl-[1,2,4]triazolo[4,3-a]quinoxaline-4-ylamino]-butylcarbamoyl}-2-methyl-propyl)-carbamic acid isopropylester] | ≤ 0.2 µM | 0.174 µM | ≤ 0.05 µM | 0.024 µM
Cc1nnc2c(NCCCCNC(=O)CC(C)C)nc3cc(NS(=O)(=O)CC(F)(F)F)ccc3n12 [Example 258] |  | 0.345 µM | ≤ 0.05 µM | 0.049 µM
COc1cc2c(cc1C)nc(NCCCCNC(=O)CC(C)C)c1nnc(C)n12 [Example 151, N-[4-(8-methoxy-1,7-dimethyl-[1,2,4]triazolo[4,3-a]quinoxaline-4-ylamino)-butyl]-3-methyl-butyramide] |  | 0.38 µM |  | 0.052 µM
COc1cc2nc(NCCCCNC(=O)CC(C)C)c3nnc(C)n3c2cc1NC(=S)NC(C)C [Example 569, N-{4-[8-(3-isopropyl-thioureido)-7-methoxy-1-methyl-[1,2,4]triazolo[4,3-a]quinoxaline-4-ylamino]-butyl}-3-methyl-butyramide] |  | 0.237 µM | ≤ 0.05 µM | 0.011 µM
COCCOc1cc2nc(NCCCCNC(=O)NC(C)(C)C)c3nnc(C)n3c2cc1OCCOC [Example 169, 1-{4-[7,8-bis-(2-methoxy-ethoxy)-1-methyl-[1,2,4]triazolo[4,3-a]quinoxaline-4-ylamino]-butyl}-3-tert-butyl-urea] |  | 0.86 µM | ≤ 0.05 µM | 0.041 µM
COC(=O)c1ccc2c(c1)nc(NCCCCNC(=O)CC(C)C)c1nnc(C)n12 [Example 199, 1-methyl-4-[4-(3-methyl-butyrylamino)-butylamino]-[1,2,4]triazolo[4,3-a]quinoxaline-7-carboxylic acid methylester] | ≤ 0.2 µM | 0.049 µM |  | 0.058 µM
COCCOc1ccc2c(c1)nc(NCCCCNC(=O)Cc1ccco1)c1nnc(C)n12 [Example 407, 2-furan-2-yl-N-{4-[7-(2-methoxy-ethoxy)-1-methyl-[1,2,4]triazolo[4,3-a]quinoxaline-4-ylamino]-butyl}-acetamide] |  | 0.18 µM | ≤ 0.01 µM | 0.007 µM
Cc1nnc2c(NCCCCNC(=O)CC(C)C)nc3cc(OCCN4CCOCC4)ccc3n12 [Example 432, 3-methyl-N-{4-[1-methyl-7-(2-morpholine-4-yl-ethoxy)-[1,2,4]triazolo[4,3-a]quinoxaline-4-ylamino]-butyl}-butyramide] | ≤ 0.2 µM | 0.1 µM | ≤ 0.05 µM | 0.05 µM
Cc1nnc2c(NCCCCNC(=O)OC(C)C)nc3cc(N4CCOCC4)ccc3n12 [Example 506, [4-(1-methyl-7-morpholine-4-yl-[1,2,4]triazolo[4,3-a]quinoxaline-4-ylamino)-butyl]-carbamic acid isopropylester] |  | 0.34 µM | ≤ 0.05 µM | 0.015 µM
COCCOc1ccc2c(c1)nc(NCCCCNC(=O)CCC1CCCC1)c1nnc(C)n12 [Example 393, 3-cyclopentyl-N-{4-[7-(2-methoxy-ethoxy)-1-methyl-[1,2,4]triazolo[4,3-a]quinoxaline-4-ylamino]-butyl}-propionamide] | ≤ 0.2 µM | 0.17 µM | ≤ 0.01 µM | 0.003 µM
Cc1nnc2c(NCCCCNC(=O)CC(C)C)nc3cc(OCc4ccccc4)ccc3n12 [Example 346, N-[4-(7-benzyloxy-1-methyl-[1,2,4]triazolo[4,3-a]quinoxaline-4-ylamino)-butyl]-3-methyl-butyramide] | ≤ 0.2 µM | 0.079 µM | ≤ 0.05 µM | 0.022 µM
COc1ccc2c(c1)nc(NCCCCNC(=O)C(C)(C)C(F)(F)F)c1nnc(C)n12 [Example 293, 3,3,3-trifluoro-N-[4-(7-methoxy-1-methyl-[1,2,4]triazolo[4,3-a]quinoxaline-4-ylamino)-butyl]-2,2-dimethyl-propaneamide] |  | 0.673 µM | ≤ 0.05 µM | 0.04 µM
COCCOc1ccc2c(c1)nc(NCCCCNC(=O)c1ccccc1Cl)c1nnc(C)n12 [Example 411, 2-chloro-N-{4-[7-(2-methoxy-ethoxy)-1-methyl-[1,2,4]triazolo[4,3-a]quinoxaline-4-ylamino]-butyl}-benzamide] | ≤ 0.2 µM | 0.15 µM | ≤ 0.05 µM | 0.019 µM
Cc1nnc2c(NCCCCNC(=O)Cc3cccs3)nc3cc4c(cc3n12)OCCO4 [Example 185, N-[4-(1-methyl-8,9-dihydro-7,10-dioxa-2,3,5,11b-tetraaza-cyclopenta[a]anthracene-4-ylamino)-butyl]-2-thiophene-2-yl-acetamide] | ≤ 0.2 µM | 0.02 µM | ≤ 0.05 µM | 0.019 µM
COc1ccc2nc(NCCCCNC(=O)c3ccccc3Cl)c3nnc(C)n3c2c1 [Example 128, 2-chloro-N-[4-(8-methoxy-1-methyl-[1,2,4]triazolo[4,3-a]quinoxaline-4-ylamino)-butyl]-benzamide] | ≤ 0.2 µM | 0.17 µM | ≤ 0.05 µM | 0.033 µM

Source: patent publication US11028090B2 (Dong Wha Pharm. Co., Ltd., priority 2017, dated 2021)
